Laboratory results published in patent publication US20230302133A1, “TARGETED PROTEIN DEGRADATION IN THERAPEUTIC CELLS” (The Regents of the University of California, priority 2020, published 2023).
One block for each compound: values may come before it. Residues, ends and D or L forms follow the SMILES beside them. *: point of attachment. Cbz = O=C(OCc1ccccc1)*

How the values were obtained:
[1] = test system: STUD degradation of GFP in Jurkat T cells; experiment: Inhibitor assay: rescue of GFP fluorescence in Jurkat T cells expressing STUD and GFP target; assay type: cell-based; conditions: 5 hours
Description: Using the 2 plasmid system as described above, we lentivirally transduce Jurkat T cells. 72 hours after removal of lentivirus, we treat these Jurkat T cells and an untransduced control cell line with either 5 μM of the proteasomal inhibitor MG-132, 1 μM of the cullin ring ligase inhibitor MLN4924, 100 nM of the lysosomal inhibitor Bafilomycin Al, or DMSO vehicle control and incubate at 37 C for 5 hours. Using flow cytometry to measure GFP fluorescence following treatment, we observe that GFP fluorescence can indeed be rescued with MG-132 and MLN4924 when cells express both a functional STUD and a GFP target relative to DMSO vehicle control.
(§1) Inhibitor Assays: 100,000 cells were plated in a 96 well round bottom plate with either 5 μM MG-132 (Sigma-Aldrich #M7449-200UL), 1 μM MLN4924(Active Biochem #A-1139), 100 nM Bafilomycin A1(Enzo Life Sciences #BML-CM110-0100), or DMSO vehicle control and incubated at 37 C for 5 hours. After incubation, cells were pelleted by centrifugation at 400×g for 4 minutes. Supernatant was then removed and cells were washed once with 200 μL PBS. Cells were pelleted again (400×g for 4 minutes) and resuspended in flow buffer (PBS+2% FBS) for assay by flow cytometry.

[2] = test system: CD19BBz CAR; experiment: MLN4924 rescue of STUD knockdown of CD19BBz CAR expression in CD8+ primary T cells; assay type: cell-based, human; conditions: 1 μM MLN4924, 5 hours, 37 C
Description: Engineered CD8+T cells expressing were cocultured with NALM6 target cells and measured activation of the CAR by quantifying target cell lysis and expression of the T cell activation marker CD25.
as §1

[3] = test system: NALM6 target cells; experiment: MLN dose response: ON switch CAR lysis of NALM6 target cells; assay type: cell-based, human; conditions: MLN4924 1 μM to 0.015625 μM, 72 hours, CD8+ T cells with antiCD19BBz CAR-SynZip and memSTUD
Description: CD8+primary human T cells were engineered with an antiCD19BBz CAR fused to a SynZip and a memSTUD that binds the SynZip using the same plasmids outlined in FIG. 14A by lentiviral transduction. As a control, we also lentivirally transduce CD8+primary human T cells with an antiCD19BBz and a SynZip memSTUD which cannot bind the CAR. These engineered cells and an untransduced control were cocultured with NALM6 target cells for 72 hours at 37 C in the presence of MLN4924 ranging from 1 μM to 0.015625 μM and a DMSO vehicle control. After coculture, target cell lysis was assayed by flow cytometry. Specific target cell lysis of each cell line relative to NALM6 cells cultured alone in the same conditions was then calculated.
100 μL containing media containing a 2×concentration of MLN4924 was added to each well of seeded cells. Cells with MLN4924 were incubated at 37 C for 72 hours. DMSO vehicle at the same concentration as the max MLN4924 concentration was added to cells as a control.

[4] = test system: CAR construct with SynZIP17 fused to its C-terminus; experiment: Degradation of CAR-SZ17 fusion in Jurkat cells; assay type: cell-based; conditions: degron directly fused to the CAR
Description: Next, the soluble STUD was used to target a membrane protein for degradation. The ability of the STUD to degrade a CAR in Jurkat cells was tested by generating a CAR construct with SynZIP17 fused to its C-terminus. However, while these STUDs worked to some extent, none of them were able to completely knockdown CAR expression (see FIG. 8).
Membrane targeting STUD: Membrane targeting cells were introduced by lentiviral transduction of two plasmids. […] Cells were then analyzed by flow cytometry. […] CAR and SynNotch expression was measured by antibody staining for a peptide tag fused to the extracellular domain of the CAR/SynNotch.

[5] = target: GFP-SZ17 [GFP: P42212]; experiment: cell-based or functional assay

Compound: CC(C)C[C@@H](C=O)NC(=O)[C@H](CC(C)C)NC(=O)[C@H](CC(C)C)NC(=O)OCc1ccccc1 [MG-132] (Cbz-Leu-Leu-Leu-aldehyde)
- GFP fluorescence relative to DMSO vehicle control ([1]; 5 μM MG-132, 37 C, cells with functional STUD and GFP target): rescued

Compound: NS(=O)(=O)OC[C@@H]1C[C@@H](n2ccc3c(N[C@H]4CCc5ccccc54)ncnc32)C[C@@H]1O [MLN4924]
- GFP fluorescence relative to DMSO vehicle control ([1]; 1 μM MLN4924, 37 C, cells with functional STUD and GFP target): rescued
- CAR expression after cullin inhibitor [2]: rescue
- specific target cell lysis [3]: dose dependent

Compound: RRRG [Bonger degron]
- reduction of CAR expression [4]: over 90%

- fold change of median normalized GFP fluorescence, flow cytometry, Jurkat T cells (STUD-induced degradation) [5]: 42 fold
Compound: SynZIP18(K->R)-5xGS-RRRG (designed binder)

Compound: bafilomycin
- GFP fluorescence relative to DMSO vehicle control ([1]; 100 nM Bafilomycin, 37 C): No changes
